Experimental data: ChEMBL document CHEMBL3124779, “Discovery of ABT-267, a pan-genotypic inhibitor of HCV NS5A” (J Med Chem, 2014)
In brackets after ≈: the same amount, converted by molar mass.

Assays:
[1] = Lipophilicity, log D of the compound at pH 7.4 by HPLC analysis; assay type: physicochemical; conditions: buffer
[2] = Metabolic stability in human liver microsomes assessed as compound remaining after 30 mins; assay type: ADME; conditions: read-out: Stability
Hepatitis C virus [3] = assay: Antiviral activity against HCV1a H77 infected in human HuH7 cells assessed as inhibition of viral replication after 4 days by luciferase reporter gene assay in presence of 40% human plasma; assay type: functional, organism-based, Hepacivirus hominis; conditions: genotype 1a H77, Huh-7, Plasma, 96 h
[4] = Kinetic solubility of the compound in 10 mM of phosphate buffer at pH 7.2 by CLND method; assay type: physicochemical; conditions: read-out: Kinetic_solubility
[5] = Cmax in rat at 3 mg/kg, po; assay type: ADME, organism-based; parameters: dose 3 mg/kg, route oral; conditions: in vivo
Hepatitis C virus [6] = assay: Antiviral activity against HCV1b Con1 infected in human HuH7 cells assessed as inhibition of viral replication after 4 days by luciferase reporter gene assay; assay type: functional, organism-based, Hepacivirus hominis; conditions: isolate Con1, Huh-7, 96 h
Hepatitis C virus [7] = assay: Antiviral activity against HCV1b Con1 infected in human HuH7 cells assessed as inhibition of viral replication after 4 days by luciferase reporter gene assay in presence of 40% human plasma; assay type: functional, organism-based, Hepacivirus hominis; conditions: isolate Con1, Huh-7, Plasma, 96 h
[8] = AUC in rat at 3 mg/kg, po; assay type: ADME, organism-based; parameters: dose 3 mg/kg, route oral; conditions: plasma
Hepatitis C virus [9] = assay: Ratio of EC50 for HCV1b Con1 infected in human HuH7 cells in presence of 40% human plasma to EC50 for HCV1b Con1 infected in human HuH7 cells in absence of 40% human plasma; assay type: functional, Hepacivirus hominis, isolate Con1, Huh-7
[10] = Metabolic stability in rat liver microsomes assessed as compound remaining after 30 mins; assay type: ADME; conditions: read-out: Stability
[11] = Oral bioavailability in rat at 3 mg/kg; assay type: ADME, organism-based; conditions: in vivo
[12] = Clearance in rat at 3 mg/kg, iv; assay type: ADME, organism-based; parameters: dose 3 mg/kg, route intravenous; conditions: in vivo
Hepatitis C virus [13] = assay: Ratio of EC50 for HCV1a H77 infected in human HuH7 cells in presence of 40% human plasma to EC50 for HCV1a H77 infected in human HuH7 cells in absence of 40% human plasma; assay type: functional, Hepacivirus hominis, genotype 1a H77, Huh-7
Hepatitis C virus [14] = assay: Antiviral activity against HCV1a H77 infected in human HuH7 cells assessed as inhibition of viral replication after 4 days by luciferase reporter gene assay; assay type: functional, organism-based, Hepacivirus hominis; conditions: genotype 1a H77, Huh-7, 96 h
[15] = Tmax in rat at 3 mg/kg, po; assay type: ADME, organism-based; parameters: dose 3 mg/kg, route oral; conditions: in vivo
[16] = Volume of distribution at steady state in rat at 3 mg/kg, iv; assay type: ADME, organism-based; parameters: dose 3 mg/kg, route intravenous; conditions: in vivo, read-out: Vdss
[17] = Half life in rat at 3 mg/kg, iv; assay type: ADME, organism-based; parameters: dose 3 mg/kg, route intravenous; conditions: in vivo
[18] = Half life in rat at 3 mg/kg, po; assay type: ADME, organism-based; parameters: dose 3 mg/kg, route oral; conditions: in vivo

SMILES	logD [1]	remaining at 0.5 h [2]	EC50 (Hepatitis C virus [3])	solubility kinetic [4]	Cmax [5]	EC50 (Hepatitis C virus [6])	EC50 (Hepatitis C virus [7])	AUC [8]	remaining at 0.5 h [10]	bioavailability [11]	clearance [12]	EC50 (Hepatitis C virus [14])	Tmax [15]	Vd [16]	half-life [17]	half-life [18]	Ratio EC50 (Hepatitis C virus [9])	Ratio EC50 (Hepatitis C virus [13])
COC(=O)N[C@H](C(=O)N1CCC[C@H]1C(=O)Nc1ccc([C@H]2CC[C@H](c3ccc(NC(=O)[C@@H]4CCCN4C(=O)[C@@H](NC(=O)OC)[C@@H](C)OC)cc3)N2c2ccc(F)cc2)cc1)[C@@H](C)OC	3	48%	1950 pM	7.7 µM (≈ 6.84 µg/mL)	120 ng/mL	134 pM	1330 pM	170 ng·h/mL	46%	15%	45 mL/min/kg	794 pM	30 min	0.9 L/kg	24 min	54 min	10	2
COC(=O)N[C@H](C(=O)N1CCC[C@H]1C(=O)Nc1ccc([C@@H]2CC[C@@H](c3ccc(NC(=O)[C@@H]4CCCN4C(=O)[C@@H](NC(=O)OC)[C@H]4CCOC4)cc3)N2c2ccc(F)cc2)cc1)[C@H]1CCOC1	3.2	41%	1390 pM	9.7 µM (≈ 8.85 µg/mL)	20 ng/mL	54 pM	1270 pM	20 ng·h/mL	42%	1.5%	31.7 mL/min/kg	102 pM	24 min	0.5 L/kg	54 min	36 min	24	14
COC(=O)N[C@H](C(=O)N1CCC[C@H]1C(=O)Nc1ccc([C@H]2CC[C@H](c3ccc(NC(=O)[C@@H]4CCCN4C(=O)[C@@H](NC(=O)OC)[C@H]4CCOC4)cc3)N2c2ccc(F)cc2)cc1)[C@H]1CCOC1	3.2	47%	1920 pM	8.5 µM (≈ 7.75 µg/mL)	30 ng/mL	106 pM	917 pM	20 ng·h/mL	46%	3.2%	66.7 mL/min/kg	281 pM	18 min	1.5 L/kg	48 min	30 min	9	7

More lines, main results first:

logD [1]	remaining at 0.5 h [2]	EC50 (Hepatitis C virus [3])	solubility kinetic [4]	Cmax [5]	EC50 (Hepatitis C virus [6])	EC50 (Hepatitis C virus [7])	AUC [8]	remaining at 0.5 h [10]	bioavailability [11]	clearance [12]	EC50 (Hepatitis C virus [14])	Tmax [15]	Vd [16]	half-life [17]	half-life [18]	SMILES	Ratio EC50 (Hepatitis C virus [9])	Ratio EC50 (Hepatitis C virus [13])
5.2	52%	15500 pM	4.4 µM (≈ 3.89 µg/mL)	110 ng/mL	6 pM	528 pM	1850 ng·h/mL	56%	23%	< 6.5 mL/min/kg	263 pM	180 min	–	–	–	COC(=O)N[C@H](C(=O)N1CCC[C@H]1C(=O)Nc1ccc([C@@H]2CC[C@@H](c3ccc(NC(=O)[C@@H]4CCCN4C(=O)[C@@H](NC(=O)OC)C(C)(C)C)cc3)N2c2ccc(F)cc2)cc1)C(C)(C)C	88	59
3	54%	1400 pM	9.6 µM (≈ 8.52 µg/mL)	70 ng/mL	86 pM	539 pM	120 ng·h/mL	47%	14%	56.7 mL/min/kg	168 pM	42 min	1.3 L/kg	36 min	66 min	COC(=O)N[C@H](C(=O)N1CCC[C@H]1C(=O)Nc1ccc([C@@H]2CC[C@@H](c3ccc(NC(=O)[C@@H]4CCCN4C(=O)[C@@H](NC(=O)OC)[C@@H](C)OC)cc3)N2c2ccc(F)cc2)cc1)[C@@H](C)OC	6	8
